# Legend:
# Test in all cases: cells
# CaR-1 = assay type: functional, cell-based; settings: Homo sapiens;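 also: growth inhibition of human CaR-1 cancer cells, read out with a cell viability assay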
# Description: SANGER: Inhibition of human CaR-1 cell growth in a cell viability assay.
# LCLC-103H cell line = assay type: functional, cell-based; settings: Homo sapiens
# Description: SANGER: Inhibition of human LCLC-103H cell growth in a cell viability assay.
# MDA-MB-157 = assay type: functional, cell-based; settings: Homo sapiens
# Description: SANGER: Inhibition of human MDA-MB-157 cell growth in a cell viability assay.
# NCI-H1651 = assay type: functional, cell-based; settings: Homo sapiens;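 also: Read-out is a cell viability assay, with IC50 expressing inhibition of NCI-H1651 cell growth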
# Description: SANGER: Inhibition of human NCI-H1651 cell growth in a cell viability assay.
# SK-MEL-28 = assay type: functional, cell-based; settings: Homo sapiens;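 also: growth inhibition of human SK-MEL-28 cells, read out with a cell viability assay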
# Description: SANGER: Inhibition of human SK-MEL-28 cell growth in a cell viability assay.
# KYSE-520 cell line = assay type: functional, cell-based; settings: Homo sapiens;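 also: growth inhibition of human KYSE-520 cells, read out with a viability assay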
# Description: SANGER: Inhibition of human KYSE-520 cell growth in a cell viability assay.
# HCC1954 = assay type: functional, cell-based; settings: Homo sapiens;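 also: growth inhibition of human HCC1954 cells, read out with a cell viability assay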
# Description: SANGER: Inhibition of human HCC1954 cell growth in a cell viability assay.
# SF-295 = assay type: functional, cell-based; settings: Homo sapiens;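 also: growth inhibition of SF-295 cells, read out with a cell viability assay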
# Description: SANGER: Inhibition of human SF295 cell growth in a cell viability assay.
# ABC-1 = assay type: functional, cell-based; settings: Homo sapiens;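 also: growth inhibition of human ABC-1 cells, read out by a cell viability assay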
# Description: SANGER: Inhibition of human ABC-1 cell growth in a cell viability assay.
# SK-MES-1 = assay type: functional, cell-based; settings: Homo sapiens;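 also: growth inhibition of human SK-MES-1 cells, read out with a cell viability assay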
# Description: SANGER: Inhibition of human SK-MES-1 cell growth in a cell viability assay.
# KYSE-70 cell line = assay type: functional, cell-based; settings: Homo sapiens;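 also: cell viability assay read-out, with IC50 expressing suppression of KYSE-70 cell growth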
# Description: SANGER: Inhibition of human KYSE-70 cell growth in a cell viability assay.
# SJRH30 = assay type: functional, cell-based; settings: Homo sapiens;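 also: growth inhibition of human SJRH30 cells, read out with a cell viability assay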
# Description: SANGER: Inhibition of human SJRH30 cell growth in a cell viability assay.
# RMG-I = assay type: functional, cell-based; settings: Homo sapiens;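 also: growth inhibition of human RMG-I cells, read out with a cell viability assay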
# Description: SANGER: Inhibition of human RMG-I cell growth in a cell viability assay.
# SK-MEL3 = assay type: functional, cell-based, SK-MEL-3; settings: Homo sapiens;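 also: growth inhibition of human SK-MEL-3 cells, read out with a cell viability assay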
# Description: SANGER: Inhibition of human SK-MEL-3 cell growth in a cell viability assay.
# BEN = assay type: functional, cell-based; settings: Homo sapiens;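 also: growth inhibition of the BEN cell line, read out with a cell viability assay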
# Description: SANGER: Inhibition of human BEN cell growth in a cell viability assay.
# SK-HEP1 = assay type: functional, cell-based, SK-HEP-1; settings: Homo sapiens;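 also: cell viability readout used to quantify reduction in proliferation of human SK-HEP-1 cells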
# Description: SANGER: Inhibition of human SK-HEP-1 cell growth in a cell viability assay.
# 23132-87 = assay type: functional, cell-based; settings: Homo sapiens
# Description: SANGER: Inhibition of human 23132-87 cell growth in a cell viability assay.
# HCT-15 = assay type: functional, cell-based; settings: Homo sapiens;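 also: cell viability readout, IC50 reflecting suppression of HCT-15 cell growth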
# Description: SANGER: Inhibition of human HCT-15 cell growth in a cell viability assay.
# COLO-792 = assay type: functional, cell-based; settings: Homo sapiens
# Description: SANGER: Inhibition of human COLO-792 cell growth in a cell viability assay.
# HuCCT-1 = assay type: functional, cell-based, HuCCT1; settings: Homo sapiens;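 also: growth inhibition of HuCCT-1 cells, read out by a cell viability assay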
# Description: SANGER: Inhibition of human HuCCT1 cell growth in a cell viability assay.
# SNU-449 = assay type: functional, cell-based; settings: Homo sapiens
# Description: SANGER: Inhibition of human SNU-449 cell growth in a cell viability assay.
# CHP-212 = assay type: functional, cell-based; settings: Homo sapiens
# Description: SANGER: Inhibition of human CHP-212 cell growth in a cell viability assay.
# GCT = assay type: functional, cell-based; settings: Homo sapiens;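 also: GCT cell line proliferation inhibition, read out with a cell viability assay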
# Description: SANGER: Inhibition of human GCT cell growth in a cell viability assay.
# HuP-T4 = assay type: functional, cell-based; settings: Homo sapiens;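 also: cell viability assay measuring how much HuP-T4 cell growth is inhibited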
# Description: SANGER: Inhibition of human HuP-T4 cell growth in a cell viability assay.
# G-401 = assay type: functional, cell-based; settings: Homo sapiens
# Description: SANGER: Inhibition of human G-401 cell growth in a cell viability assay.
# HC-1 = assay type: functional, cell-based, Homo sapiens; settings: Homo sapiens, HC-1;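 also: growth inhibition of HC-1 cells measured by a cell viability assay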
# Description: SANGER: Inhibition of human HC-1 cell growth in a cell viability assay.
# MDA-MB-361 = assay type: functional, cell-based; settings: Homo sapiens
# U2OS = assay type: functional, cell-based, U-2-OS; settings: Homo sapiens;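 also: growth inhibition of human U-2-OS cells, determined with a cell viability assay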
# Description: SANGER: Inhibition of human U-2-OS cell growth in a cell viability assay.
# MKN-1 = assay type: functional, cell-based; settings: Homo sapiens;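 also: growth inhibition of human MKN1 cells, read out by a cell viability measurement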
# Description: SANGER: Inhibition of human MKN1 cell growth in a cell viability assay.
# RVH-421 = assay type: functional, cell-based; settings: Homo sapiens
# Description: SANGER: Inhibition of human RVH-421 cell growth in a cell viability assay.
# IGR-1 = assay type: functional, cell-based; settings: Homo sapiens;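 also: growth inhibition of human IGR-1 cells, read out with a cell viability assay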
# Description: SANGER: Inhibition of human IGR-1 cell growth in a cell viability assay.
# CHL-1 = assay type: functional, cell-based; settings: Homo sapiens;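 also: cell growth inhibition, read out with a cell viability assay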
# Description: SANGER: Inhibition of human CHL-1 cell growth in a cell viability assay.
# HO-1-N-1 = assay type: functional, cell-based; settings: Homo sapiens;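 also: growth inhibition of human HO-1-N-1 cells, read out with a cell viability assay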
# Description: SANGER: Inhibition of human HO-1-N-1 cell growth in a cell viability assay.
# OE19 = assay type: functional, cell-based; settings: Homo sapiens;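 also: growth inhibition of OE19 cells, measured through a cell viability read-out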
# Description: SANGER: Inhibition of human OE19 cell growth in a cell viability assay.
# KP-4 = assay type: functional, cell-based; settings: Homo sapiens;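 also: human KP-4 cells, with growth inhibition read out through a cell viability assay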
# Description: SANGER: Inhibition of human KP-4 cell growth in a cell viability assay.
# 786-0 = assay type: functional, cell-based; settings: Homo sapiens
# Description: SANGER: Inhibition of human 786-0 cell growth in a cell viability assay.
# CAL-51 = assay type: functional, cell-based; settings: Homo sapiens;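 also: human CAL-51 cell line, growth inhibition read out via a cell viability assay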
# Description: SANGER: Inhibition of human CAL-51 cell growth in a cell viability assay.
# PANC-03-27 = assay type: functional, cell-based; settings: Homo sapiens
# Description: SANGER: Inhibition of human PANC-03-27 cell growth in a cell viability assay.
# SW837 = assay type: functional, cell-based; settings: Homo sapiens;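 also: growth inhibition of SW837 cells, determined with a cell viability assay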
# Description: SANGER: Inhibition of human SW837 cell growth in a cell viability assay.
# A 172 = assay type: functional, cell-based; settings: Homo sapiens;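 also: growth inhibition of A172 cells, measured with a cell viability readout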
# Description: SANGER: Inhibition of human A172 cell growth in a cell viability assay.
# NCI-H1693 = assay type: functional, cell-based; settings: Homo sapiens;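 also: growth inhibition of the human cell line, read out with a cell viability assay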
# Description: SANGER: Inhibition of human NCI-H1693 cell growth in a cell viability assay.
# A-375 = assay type: functional, cell-based; settings: Homo sapiens;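 also: growth inhibition of A375 cells, read out with a cell viability assay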
# Description: SANGER: Inhibition of human A375 cell growth in a cell viability assay.
# EFO-21 = assay type: functional, cell-based; settings: Homo sapiens;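 also: growth inhibition of EFO-21 cells measured with a viability assay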
# Description: SANGER: Inhibition of human EFO-21 cell growth in a cell viability assay.
# MEL-JUSO = assay type: functional, cell-based; settings: Homo sapiens;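 also: growth inhibition of human MEL-JUSO cells, read out with a cell viability assay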
# Description: SANGER: Inhibition of human MEL-JUSO cell growth in a cell viability assay.
compound,measurement,setting,value
CN(NC(=O)CC(=O)NN(C)C(=S)c1ccccc1)C(=S)c1ccccc1 [ELESCLOMOL],IC50,CaR-1,> 0.2 µM
same,IC50,LCLC-103H cell line,> 0.2 µM
same,IC50,MDA-MB-157,0.00292 µM
same,IC50,NCI-H1651,0.0829 µM
same,IC50,SK-MEL-28,0.0797 µM
same,IC50,KYSE-520 cell line,0.104 µM
same,IC50,HCC1954,> 0.2 µM
same,IC50,SF-295,0.0092 µM
same,IC50,ABC-1,0.000365 µM
same,IC50,SK-MES-1,> 0.2 µM
same,IC50,KYSE-70 cell line,0.054 µM
same,IC50,SJRH30,0.1 µM
same,IC50,RMG-I,> 0.2 µM
same,IC50,SK-MEL3,> 0.2 µM
same,IC50,BEN,0.116 µM
same,IC50,SK-HEP1,> 0.2 µM
same,IC50,23132-87,0.0249 µM
same,IC50,HCT-15,0.15 µM
same,IC50,COLO-792,0.0288 µM
same,IC50,HuCCT-1,0.00552 µM
same,IC50,SNU-449,0.0142 µM
same,IC50,CHP-212,0.00734 µM
same,IC50,GCT,0.0234 µM
same,IC50,HuP-T4,0.0207 µM
same,IC50,G-401,0.00543 µM
same,IC50,HC-1,> 0.2 µM
same,IC50,MDA-MB-361,0.0259 µM
same,IC50,U2OS,0.0197 µM
same,IC50,MKN-1,0.026 µM
same,IC50,RVH-421,0.0762 µM
same,IC50,IGR-1,> 0.2 µM
same,IC50,CHL-1,0.00281 µM
same,IC50,HO-1-N-1,0.0245 µM
same,IC50,OE19,> 0.2 µM
same,IC50,KP-4,0.00217 µM
same,IC50,786-0,0.0129 µM
same,IC50,CAL-51,< 0.000781 µM
same,IC50,PANC-03-27,0.0399 µM
same,IC50,SW837,0.107 µM
same,IC50,A 172,0.0209 µM
same,IC50,NCI-H1693,0.00909 µM
same,IC50,A-375,0.00414 µM
same,IC50,EFO-21,0.149 µM
same,IC50,MEL-JUSO,0.0106 µM
CC1=C(/C=C/C(C)=C/C=C/C(C)=C/C(=O)O)C(C)(C)CCC1 [TRETINOIN],IC50,CaR-1,> 10 µM
same,IC50,LCLC-103H cell line,> 10 µM
same,IC50,MDA-MB-157,> 10 µM
same,IC50,NCI-H1651,> 10 µM
same,IC50,SK-MEL-28,> 10 µM
same,IC50,KYSE-520 cell line,> 10 µM
same,IC50,HCC1954,> 10 µM
same,IC50,SF-295,> 10 µM
same,IC50,ABC-1,> 10 µM
same,IC50,SK-MES-1,> 10 µM
same,IC50,KYSE-70 cell line,> 10 µM
same,IC50,SJRH30,> 10 µM
same,IC50,RMG-I,> 10 µM
same,IC50,SK-MEL3,> 10 µM
same,IC50,BEN,> 10 µM
same,IC50,SK-HEP1,> 10 µM
same,IC50,23132-87,> 10 µM
same,IC50,HCT-15,> 10 µM
same,IC50,COLO-792,> 10 µM
same,IC50,HuCCT-1,> 10 µM
same,IC50,SNU-449,> 10 µM
same,IC50,CHP-212,> 10 µM
same,IC50,GCT,> 10 µM
same,IC50,HuP-T4,> 10 µM
same,IC50,G-401,> 10 µM
same,IC50,HC-1,> 10 µM
same,IC50,MDA-MB-361,> 10 µM
same,IC50,U2OS,> 10 µM
same,IC50,MKN-1,> 10 µM
same,IC50,RVH-421,> 10 µM
same,IC50,IGR-1,> 10 µM
same,IC50,CHL-1,> 10 µM
same,IC50,HO-1-N-1,> 10 µM
same,IC50,OE19,> 10 µM
same,IC50,KP-4,> 10 µM
same,IC50,786-0,> 10 µM
same,IC50,CAL-51,> 10 µM
same,IC50,PANC-03-27,> 10 µM
same,IC50,SW837,> 10 µM
same,IC50,A 172,> 10 µM
same,IC50,NCI-H1693,> 10 µM
same,IC50,A-375,> 10 µM
same,IC50,EFO-21,> 10 µM
same,IC50,MEL-JUSO,> 10 µM
NC(=O)c1ccc(N(C(N)=O)c2c(F)cccc2F)nc1-c1ccc(F)cc1F [VX-702],IC50,CaR-1,> 2 µM
same,IC50,LCLC-103H cell line,> 2 µM
same,IC50,MDA-MB-157,> 2 µM
same,IC50,NCI-H1651,> 2 µM
same,IC50,SK-MEL-28,> 2 µM
same,IC50,KYSE-520 cell line,> 2 µM
same,IC50,HCC1954,> 2 µM
same,IC50,SF-295,> 2 µM
same,IC50,ABC-1,> 2 µM
same,IC50,SK-MES-1,> 2 µM
same,IC50,KYSE-70 cell line,> 2 µM
same,IC50,SJRH30,> 2 µM
same,IC50,RMG-I,> 2 µM
same,IC50,SK-MEL3,> 2 µM
same,IC50,BEN,> 2 µM
same,IC50,SK-HEP1,> 2 µM
same,IC50,23132-87,> 2 µM
same,IC50,HCT-15,> 2 µM
same,IC50,COLO-792,> 2 µM
same,IC50,HuCCT-1,> 2 µM
same,IC50,SNU-449,> 2 µM
same,IC50,CHP-212,> 2 µM
same,IC50,GCT,> 2 µM
same,IC50,HuP-T4,> 2 µM
same,IC50,G-401,> 2 µM
same,IC50,HC-1,> 2 µM
same,IC50,MDA-MB-361,> 2 µM
same,IC50,U2OS,> 2 µM
same,IC50,MKN-1,> 2 µM
same,IC50,RVH-421,> 2 µM
same,IC50,IGR-1,> 2 µM
same,IC50,CHL-1,> 2 µM
same,IC50,HO-1-N-1,> 2 µM
same,IC50,OE19,> 2 µM
same,IC50,KP-4,> 2 µM
same,IC50,786-0,> 2 µM
same,IC50,CAL-51,> 2 µM
same,IC50,PANC-03-27,> 2 µM
same,IC50,SW837,> 2 µM
same,IC50,A 172,> 2 µM
same,IC50,NCI-H1693,> 2 µM
same,IC50,A-375,> 2 µM
same,IC50,EFO-21,> 2 µM
same,IC50,MEL-JUSO,> 2 µM
